Here are results for one compound from ChEMBL document CHEMBL4715876 (J Med Chem, 2020).

Data set [1] is described as follows: AUClast in BALB/C mouse at 10 mg/kg, iv measured upto 24 hrs by LC-MS analysis. Type of data set: ADME, organism-based. Further details: route intravenous, dose 10 mg/kg, time <= 24. The note with it: in vivo.
A short description of data set [2]: Drug uptake in CB.17 SCID mouse tumor xenografted with SUDHL-6 cells assessed as effect on body weight at 5 mg/kg, po once daily for 15 days. Type of data set: ADME, organism-based, Neoplasm. The note with it: time 15 day, read-out: Drug uptake.
The nature of data set [3]: Cmax in Sprague-Dawley rat at 3 mg/kg, iv measured upto 24 hrs by LC-MS/MS analysis. It counts as ADME, organism-based. Further details: route intravenous, dose 3 mg/kg, time <=24. The note with it: in vivo.
The nature of data set [4]: Tmax in Beagle dog at 1 mg/kg, iv measured upto 24 hrs by LC-MS/MS analysis. The note with it: in vivo. Type of data set: ADME, organism-based, Canis lupus familiaris.
A short description of data set [5]: Plasma concentration in CB.17 SCID mouse xenografted with OCI-LY10 cells at 3 mg/kg, po once daily for 24 days. Type of data set: ADME, organism-based. The note with it: time 24 day.
Data set [6] is described as follows: Volume of distribution at steady state in Sprague-Dawley rat at 3 mg/kg, iv measured upto 24 hrs by LC-MS/MS analysis. The note with it: in vivo, read-out: Vdss. Type of data set: ADME, organism-based.
Data set [7] can be described thus: Plasma concentration in CB.17 SCID mouse xenografted with TMD-8 cells at 3 mg/kg, po once daily for 19 days. Type of data set: ADME, organism-based. The note with it: time 19 day.
The nature of data set [8]: in vivo. The note with it: BALB/C, mouse, po, 30 mg/kg.
Data set [9] in a line: Tmax in Sprague-Dawley rat at 3 mg/kg, po measured upto 24 hrs by LC-MS/MS analysis. The note with it: in vivo. It counts as ADME, organism-based.
A short description of data set [10]: Cmax in Sprague-Dawley rat at 3 mg/kg, po measured upto 24 hrs by LC-MS/MS analysis. It counts as ADME, organism-based. On the set-up: route oral, dose 3 mg/kg, time <=24. The note with it: in vivo.
Data set [11] can be described thus: Cmax in Beagle dog at 1 mg/kg, po measured upto 24 hrs by LC-MS/MS analysis. It counts as ADME, organism-based, Canis lupus familiaris. On the set-up: route oral, dose 1 mg/kg, time <=24. The note with it: in vivo.
Data set [12] in a line: Plasma concentration in CB.17 SCID mouse tumor xenografted with SUDHL-6 cells assessed as effect on body weight at 5 mg/kg, po once daily for 15 days. It counts as ADME, organism-based. The note with it: time 15 day.
Data set [13] is described as follows: Tmax in Sprague-Dawley rat at 3 mg/kg, iv measured upto 24 hrs by LC-MS/MS analysis. Type of data set: ADME, organism-based. The note with it: in vivo.
Data set [14] in a line: Oral bioavailability in BALB/C mouse at 30 mg/kg measured upto 24 hrs by LC-MS analysis. It counts as ADME, organism-based. The note with it: in vivo.
Data set [15] in a line: Oral bioavailability in Beagle dog at 1 mg/kg measured upto 24 hrs by LC-MS/MS analysis. The note with it: in vivo. Type of data set: ADME, organism-based, Canis lupus familiaris.
The nature of data set [16]: Tmax in BALB/C mouse at 30 mg/kg, po measured upto 24 hrs by LC-MS analysis. Type of data set: ADME, organism-based. The note with it: in vivo.
A short description of data set [17]: Tmax in Beagle dog at 1 mg/kg, po measured upto 24 hrs by LC-MS/MS analysis. It counts as ADME, organism-based, Canis lupus familiaris. The note with it: in vivo.
Data set [18] in a line: Volume of distribution at steady state in BALB/C mouse at 10 mg/kg, iv measured upto 24 hrs by LC-MS analysis. The note with it: in vivo, read-out: Vdss. It counts as ADME, organism-based.
Data set [19] can be described thus: Drug uptake in CB.17 SCID mouse tumor xenografted with OCI-LY10 cells at 3 mg/kg, po once daily for 24 days. Type of data set: ADME, organism-based, Neoplasm. The note with it: time 24 day, read-out: Drug uptake.
The nature of data set [20]: Drug uptake in CB.17 SCID mouse tumor xenografted with TMD-8 cells at 3 mg/kg, po once daily for 19 days. Type of data set: ADME, organism-based, Neoplasm. The note with it: time 19 day, read-out: Drug uptake.
A short description of data set [21]: Cmax in BALB/C mouse at 30 mg/kg,po measured upto 24 hrs by LC-MS analysis. On the set-up: route oral, dose 30 mg/kg, time <= 24. It counts as ADME, organism-based. The note with it: in vivo.

As a reminder, the AUC(0-t) is exposure summed from dosing to a finite time, without extrapolation to infinity. A low value points to less exposure. By Cmax is commonly meant the highest concentration seen after dosing. What is called Tmax is the time from dosing to the highest level. What is called bioavailability is dose-corrected exposure relative to a reference, in per cent. Lower therefore signals poor availability.

Regarding `CC[C@H](Nc1ncnc2[nH]cnc12)c1nc2cccc(F)c2c(=O)n1-c1ccccc1` [IDELALISIB], the values for the AUC(0-t) at 24 h in data set [1] and in data set [8] were 7.43 µM·h and 9.25 µM·h, respectively. Besides, the results for the concentration at 360 h in data set [2] and in [12] were 80 nM and 30 nM, respectively. The highest concentration (Cmax) in [3] was found to be 3460 nM; in [10], 310 nM; in [11], 500 nM; in data set [21], 6980 nM. Further, the Tmax in [4] amounted to 4.8 min; in data set [9] it was 180 min; in data set [13], 4.8 min; in data set [16], 15 min; in data set [17], 60 min. Also, the concentration at 576 h in data set [5] amounted to 40 nM; in data set [19] it was 150 nM. Also, the Vd in data set [6] turned out to be 2.49 L/kg; in data set [18], 0.73 L/kg. Further, the concentration at 456 h was found to be 20 nM in data set [7] and 140 nM in data set [20]. Further, the bioavailability in [14] was determined as 37.6%; in [15], 48%.
